{
  "source": "patent US20260191968A1",
  "about": "“PROTAC DEGRADERS OF MLLT1 AND/OR MLLT3” (DARK BLUE THERAPEUTICS LTD, priority 2024, published 2026)",
  "assay_type_in_all_cases": "cell-based",
  "key": {"MLLT1 [1]": {"biological_target": "T1, MLLT1 (Homo sapiens, UniProt Q03111)", "T1 construct": "host or cells: MV4-11", "T1 sequence (Q03111 1-559)": "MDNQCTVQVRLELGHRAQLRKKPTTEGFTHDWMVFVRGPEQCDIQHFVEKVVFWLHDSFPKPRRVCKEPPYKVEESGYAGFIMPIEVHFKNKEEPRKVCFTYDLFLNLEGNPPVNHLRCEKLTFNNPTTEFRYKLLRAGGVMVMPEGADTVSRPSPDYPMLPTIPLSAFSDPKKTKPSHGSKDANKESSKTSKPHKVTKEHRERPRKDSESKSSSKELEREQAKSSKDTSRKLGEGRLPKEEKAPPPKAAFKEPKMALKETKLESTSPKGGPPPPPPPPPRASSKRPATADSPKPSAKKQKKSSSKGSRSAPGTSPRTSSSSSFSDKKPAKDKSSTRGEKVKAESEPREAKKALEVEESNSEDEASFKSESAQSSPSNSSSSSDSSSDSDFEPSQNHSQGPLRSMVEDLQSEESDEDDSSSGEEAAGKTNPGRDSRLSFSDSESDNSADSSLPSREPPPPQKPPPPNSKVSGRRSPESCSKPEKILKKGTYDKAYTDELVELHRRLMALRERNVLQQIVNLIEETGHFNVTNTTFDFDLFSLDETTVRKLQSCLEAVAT", "test": "MLLT1 DC50 and Dmax determination in MV4-11 cells (JESS), dose response, 4 h", "conditions": "MLLT1 degradation; for Dmax: maximum % degradation observed", "method": "MLLT1 degradation efficacy of compounds was tested in an automated chemiluminescent detection system (JESS, Cat #004-650). MV4-11 (#CRL-9591, ATCC) were seeded at a density of 1.2 million cells/well in a non-treated 6-well cell culture plate in 2.4 mL of complete medium (IMDM+10% FBS+1X Penicillin-Streptomycin). 10 mM DMSO stocks were prepared, and cells were treated with eight concentrations of test compounds, starting from 100 nM, 5-fold dilution, at a final DMSO concentration of 0.1% and incubated for 4 h at 37° C., 5% CO2. Post incubation, cells were centrifuged, washed with HBSS and lysed in 60 μL of RIPA buffer supplemented with Protease inhibitors (sc-24948; Santa Cruz). Protein estimation was done using BCA protein assay kit (23228; Pierce). 4 μg protein lysate (4 μL of 1 μg/μL lysate) was loaded into each well of the JESS cartridge (SM-W004; Bio-techne) and the JESS run was performed using 1:900 dilution of anti-human MLLT1 antibody (ABE2596; Merck) and 1:1200 dilution of anti-human GAPDH antibody (2118; Cell signaling technology) with anti-rabbit secondary detection module (DM-001; Bio-Techne). Post run, data was analysed using “Compass for SW” software for chemiluminescent detection. Peak fit was done using “dropped lines” method. Peak area for MLLT1 and GAPDH was used for the calculation of MLLT1 degradation with respect to DMSO control. Data was shown as “% degradation”. % Degradation was plotted against the respective doses (test compound concentration) and dose-response curve (DRC) was generated using four-parameter logistic equation (non-linear regression). Following parameters for each DRC was captured: DC50 (concentration in nM at which degradation is 50%, interpolated from standard curve and transformed to linear scale), Dmax (maximum % degradation observed). DC50 and Dmax data are captured in Table 9 for Example 8 and Example 234, which is a comparative example."}, "MLLT1 [2]": {"biological_target": "T1, MLLT1", "test": "MLLT1 degradation assay in MV4-11 cells (JESS chemiluminescent detection), three concentrations, 24 h", "conditions": "with respect to DMSO control", "outline": "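MV4-11 cells treated 24 h at 37° C, 5% CO2 with 1000, 100 and 10 nM compound (0.1% DMSO final). MLLT1 quantified by automated capillary chemiluminescent immunodetection; band peak area expressed as % degradation relative to DMSO control.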"}, "MV4-11 cells [3]": {"tested_on": "MV4-11 cells", "test": "MV4-11 cellular proliferative assay, Assay Format B (CTG 2.0, 168 h)", "conditions": "Homo sapiens", "outline": "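MV4-11 cells seeded overnight in IMDM + 10% FBS, then exposed to 10-point, 3-fold dilutions from 1 uM or 100 nM top concentration (0.3% DMSO final) for 168 h at 37 °C. CTG 2.0 luminescence read; % viability vs DMSO control fitted by four-parameter logistic regression.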"}, "MV4-11 cells [4]": {"tested_on": "MV4-11 cells", "test": "MV4-11 cellular proliferative assay, Assay Format A (CellTiter-Glo, 120 hours)", "conditions": "Homo sapiens", "method": "An MV4-11 proliferation assay was used to test the ability of compounds to reduce cell viability. MV4-11 cells (ATCC #CRL9591) were grown in IMDM medium (11510596, Gibco) supplemented with 10% fetal bovine serum (F7524, Gibco) and 1% Penicillin/Streptomycin (15140-122, Gibco) at 37° C. with 5% CO2. Cells were seeded in 384-well Elplasia plates (4447, Corning) at a density of 50 cells/well and treated with vehicle (DMSO) or compounds (10 serial semi-log dilutions, 30 μM as top concentration).\nAfter 120 hours of treatment, cells were incubated for 10 min at RT with the CellTiter-Glo (CTG) reagent (G7571, Promega). Measurement of the luminescence signal was performed on a microplate reader (Ensight, PerkinElmer). CTG reagent measures the amount of ATP, which is directly proportional to the number of cells, to determine the number of viable cells in culture.\nThe data were analysed as follows:\nwhere x is the measured raw signal value of a well, (cr) is the median of the measured signal values for the Central Reference (DMSO) wells on a plate, (sr) is the median of the measured signal values for the Scale Reference (reference compound) wells on a plate.\nwhere the experimental set-up assumes the Hill parameters in certain ranges: S0~Central Reference (CR) from normalization (=Bottom), Sinf~Scale Reference (SR) from normalization (=Top), nHill~1, AC50~within the measured concentration range."}, "[5]": {"conditions": "Assay Method B, read-out: MV4-11 Antiproliferation IC50"}},
  "data": [
    {"molecule": "CN1CCC[C@@H]1c1cc2cnc(NC(=O)c3ccc(CCCCC#Cc4cccc5c4CN(C4CCC(=O)NC4=O)C5=O)cc3)cc2[nH]1", "note": "(mixture of isomers) [Example 8, 4-(6-(2-(2,6-dioxopiperidin-3-yl)-1-oxoisoindolin-4-yl)hex-5-yn-1-yl)-N-(2-((R)-1-methylpyrrolidin-2-yl)-1H-pyrrolo[3,2-c]pyridin-6-yl)benzamide]", "values": [
      {"measurement": "DC50", "setting": "MLLT1 [1]", "value": 0.4, "unit": "nM"},
      {"measurement": "Dmax", "setting": "MLLT1 [1]", "value": 87, "unit": "%"},
      {"measurement": "MLLT1% Degradation @ 0.01 μM", "setting": "MLLT1 [2]", "value": "A (Category A: A ≥ 75% degradation)"},
      {"measurement": "MLLT1% Degradation @ 0.1 μM", "setting": "MLLT1 [2]", "value": "A (Category A: A ≥ 75% degradation)"},
      {"measurement": "MLLT1% Degradation @ 1 μM", "setting": "MLLT1 [2]", "value": "A (Category A: A ≥ 75% degradation)"},
      {"measurement": "IC50", "setting": "MV4-11 cells [3]; 168 h (7 days), CTG 2.0, read-out: IC50 (MV4-11 cellular proliferative assay, Assay format B)", "value": "≤ 100", "unit": "nM"},
      {"measurement": "IC50", "setting": "MV4-11 cells [3]; [5]", "value": 1.5, "unit": "nM"}
    ]},
    {"molecule": "O=C1CCC(N2Cc3c(C#CCCCCc4ccc(C(=O)Nc5cc6[nH]c(CN7CCCC7)cc6cn5)cc4)cccc3C2=O)C(=O)N1", "note": "(stereo not drawn) [Example 234, 4-(6-(2-(2,6-dioxopiperidin-3-yl)-1-oxoisoindolin-4-yl)hex-5-yn-1-yl)-N-(2-(pyrrolidin-1-ylmethyl)-1H-pyrrolo[3,2-c]pyridin-6-yl)benzamide]", "values": [
      {"measurement": "DC50", "setting": "MLLT1 [1]", "value": 6.4, "unit": "nM"},
      {"measurement": "Dmax", "setting": "MLLT1 [1]", "value": 60, "unit": "%"},
      {"measurement": "IC50", "setting": "MV4-11 cells [3]; [5]", "value": "> 1000", "unit": "nM"}
    ]},
    {"molecule": "CN1CCC[C@@H]1c1cc2cnc(NC(=O)c3ccc(CCC#Cc4cccc5c4CN(C4CCC(=O)NC4=O)C5=O)cc3F)cc2[nH]1", "note": "(stereo partly drawn) [Example 54, 4-(4-(2-(2,6-dioxopiperidin-3-yl)-1-oxoisoindolin-4-yl)but-3-yn-1-yl)-2-fluoro-N-(2-((R)-1-methylpyrrolidin-2-yl)-1H-pyrrolo[3,2-c]pyridin-6-yl)benzamide]", "values": [
      {"measurement": "MLLT1% Degradation @ 0.01 μM", "setting": "MLLT1 [2]", "value": "A (Category A: A ≥ 75% degradation)"},
      {"measurement": "MLLT1% Degradation @ 0.1 μM", "setting": "MLLT1 [2]", "value": "A (Category A: A ≥ 75% degradation)"},
      {"measurement": "MLLT1% Degradation @ 1 μM", "setting": "MLLT1 [2]", "value": "B (Category B: 50% ≤ B < 75% degradation)"},
      {"measurement": "IC50", "setting": "MV4-11 cells [4]", "value": "≤ 100", "unit": "nM"}
    ]},
    {"molecule": "CN1CCC[C@@H]1c1cc2cnc(NC(=O)CCCCCC3CCN(c4cccc5c4C(=O)N(C4CCC(=O)NC4=O)C5=O)CC3)cc2[nH]1", "note": "(stereo partly drawn) [Example 43, 6-(1-(2-(2,6-dioxopiperidin-3-yl)-1,3-dioxoisoindolin-4-yl)piperidin-4-yl)-N-(2-((R)-1-methylpyrrolidin-2-yl)-1H-pyrrolo[3,2-c]pyridin-6-yl)hexanamide]", "values": [
      {"measurement": "MLLT1% Degradation @ 0.1 μM", "setting": "MLLT1 [2]", "value": "A (Category A: A ≥ 75% degradation)"},
      {"measurement": "MLLT1% Degradation @ 1 μM", "setting": "MLLT1 [2]", "value": "B (Category B: 50% ≤ B < 75% degradation)"},
      {"measurement": "IC50", "setting": "MV4-11 cells [4]", "value": "≤ 100", "unit": "nM"}
    ]},
    {"molecule": "CN1CCC[C@@H]1c1cc2cnc(NC(=O)c3ccc(CC4CCN(c5cccc6c5C(=O)N(C5CCC(=O)NC5=O)C6=O)CC4)cc3)cc2[nH]1", "note": "(stereo partly drawn) [Example 3, 4-((1-(2-(2,6-dioxopiperidin-3-yl)-1,3-dioxoisoindolin-4-yl)piperidin-4-yl)methyl)-N-(2-((R)-1-methylpyrrolidin-2-yl)-1H-pyrrolo[3,2-c]pyridin-6-yl)benzamide]", "values": [
      {"measurement": "MLLT1% Degradation @ 0.01 μM", "setting": "MLLT1 [2]", "value": "C (Category C: 25% ≤ C < 50% degradation)"},
      {"measurement": "MLLT1% Degradation @ 0.1 μM", "setting": "MLLT1 [2]", "value": "A (Category A: A ≥ 75% degradation)"},
      {"measurement": "MLLT1% Degradation @ 1 μM", "setting": "MLLT1 [2]", "value": "A (Category A: A ≥ 75% degradation)"},
      {"measurement": "IC50", "setting": "MV4-11 cells [4]", "value": "≤ 100", "unit": "nM"}
    ]},
    {"molecule": "CN1CCC[C@@H]1c1cc2cnc(NC(=O)CCCCC3CCN(c4cccc5c4C(=O)N(C4CCC(=O)NC4=O)C5=O)CC3)cc2[nH]1", "note": "(stereo partly drawn) [Example 42, 5-(1-(2-(2,6-Dioxopiperidin-3-yl)-1,3-dioxoisoindolin-4-yl)piperidin-4-yl)-N-(2-((R)-1-methylpyrrolidin-2-yl)-1H-pyrrolo[3,2-c]pyridin-6-yl)pentanamide]", "values": [
      {"measurement": "MLLT1% Degradation @ 0.1 μM", "setting": "MLLT1 [2]", "value": "B (Category B: 50% ≤ B < 75% degradation)"},
      {"measurement": "MLLT1% Degradation @ 1 μM", "setting": "MLLT1 [2]", "value": "B (Category B: 50% ≤ B < 75% degradation)"},
      {"measurement": "IC50", "setting": "MV4-11 cells [4]", "value": "≤ 100", "unit": "nM"}
    ]}
  ]
}
